Data on seven compounds can be found in ChEMBL document CHEMBL1201862, “PubChem BioAssay data set” (2004).

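Values below derive from 48-hour exposures of cells grown in 96-well plates, with endpoints linearly interpolated between the two concentrations bracketing the appropriate inhibition level. GI50 marks 50% less growth.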 The source made the active and inactive calls. Cut-off read from the data, not from the text of the source: active = GI50 up to about 1.1 µM and inactive = higher.

Among the test systems are NCI-H460; SR; DU-145; NCI-H226; LOX IMVI; CCRF-CEM; MDA-MB-231; UACC-257; OVCAR-3; OVCAR-5; COLO 205; HCT-15; HOP-92; T47D; A498; Malme-3M; OVCAR-4; SF-268; PC-3; SK-MEL-28.
Common to all, as to assay: inhibition of tumour cell growth, NCI panel, 48 h

For the compound `O=C1N[C@H]2C(=O)c3c(Br)sc(Br)c3[C@H]2O1`, the GI50 was 16.8 µM (inactive) in the experiment with NCI-H460; 1.87 µM (inactive) with SR; 13.2 µM (inactive) in the experiment on DU-145; 18.1 µM (inactive) in the experiment on NCI-H226; 3.08 µM (inactive) with LOX IMVI; 1.31 µM (inactive) with CCRF-CEM. Moreover, the GI50 with MDA-MB-231 was 8.83 µM (inactive); in the experiment on UACC-257, 8.07 µM (inactive); with OVCAR-3, 3.11 µM (inactive); in the experiment on OVCAR-5, 17.7 µM (inactive); in the experiment on COLO 205 it was 3.52 µM (inactive); in the experiment on HCT-15 it was 1.95 µM. Also, the GI50 was 14.6 µM (inactive) in the experiment on HOP-92; 14.3 µM (inactive) with T47D; 18.7 µM (inactive) in the experiment with A498; 4.75 µM (inactive) with Malme-3M; 15.3 µM (inactive) in the experiment on OVCAR-4; 4.1 µM (inactive) in the experiment with SF-268. Further, the GI50 is 4.95 µM (inactive) with PC-3 and 3.41 µM (inactive) in the experiment with SK-MEL-28.

Turning to `COC(OC)C1OC(CO)C(n2cc(C)c(=O)[nH]c2=O)C1O` (stereo not given), the GI50 with NCI-H460, in the experiment on SR, in the experiment with DU-145, in the experiment on NCI-H226, in the experiment on LOX IMVI and in the experiment on CCRF-CEM was > 100 µM (inactive) each time. Moreover, the GI50 is > 100 µM (inactive) in the experiment with MDA-MB-231; > 100 µM (inactive) with UACC-257; > 100 µM (inactive) in the experiment on OVCAR-3; > 100 µM (inactive) in the experiment on OVCAR-5; > 100 µM (inactive) in the experiment with COLO 205; above 100 µM in the experiment with HCT-15. Also, the GI50 in the experiment with HOP-92, with T47D, in the experiment with A498, with Malme-3M, in the experiment with OVCAR-4 and in the experiment on SF-268 was > 100 µM (inactive) throughout. The GI50 with PC-3 and in the experiment on SK-MEL-28 was > 100 µM (inactive) throughout.

On to `O=C(Cn1c(C(=O)/C=C/c2ccc(Cl)cc2)nc2ccccc21)c1ccc(Cl)cc1`, for which the GI50 is 10.9 µM (inactive) in the experiment on NCI-H460; 4.25 µM (inactive) in the experiment on SR; 21.7 µM (inactive) with DU-145; 21.4 µM (inactive) in the experiment with NCI-H226; 16 µM (inactive) in the experiment with LOX IMVI; 2.7 µM (inactive) in the experiment on CCRF-CEM. The GI50 in the experiment on MDA-MB-231 was 19.9 µM (inactive); with UACC-257 it was 24.1 µM (inactive); in the experiment with OVCAR-3, 8.87 µM (inactive); in the experiment with OVCAR-5, 26.8 µM (inactive); with COLO 205 it was 16.5 µM (inactive); in the experiment on HCT-15, 15.3 µM. In addition, the GI50 is 34.3 µM (inactive) in the experiment on HOP-92; 28.6 µM (inactive) in the experiment on T47D; 32.3 µM (inactive) in the experiment on A498; 20.9 µM (inactive) in the experiment with Malme-3M; 13.4 µM (inactive) with OVCAR-4; 23.3 µM (inactive) with SF-268. For the same compound, the results for the GI50 with PC-3 and in the experiment with SK-MEL-28 were 22.5 µM (inactive) and 21.7 µM (inactive), respectively.

`O=C1CSC(/C(=C\c2ccc(Cl)cc2)c2nc3ccccc3[nH]2)=N1`: the GI50 in the experiment with NCI-H460 was 13.3 µM (inactive); with SR, 36.3 µM (inactive); in the experiment with DU-145 it was 13.4 µM (inactive); in the experiment with NCI-H226, 6.93 µM (inactive); in the experiment on LOX IMVI it was 15.8 µM (inactive); in the experiment on CCRF-CEM, 27.6 µM (inactive). Besides, the GI50 in the experiment on MDA-MB-231 was 12.7 µM (inactive); with UACC-257, 16.2 µM (inactive); in the experiment on OVCAR-3, 7.78 µM (inactive); in the experiment on OVCAR-5 it was 17 µM (inactive); in the experiment on COLO 205, 19.1 µM (inactive); in the experiment on HCT-15, 22.8 µM. Also, the GI50 in the experiment on HOP-92 was 12.4 µM (inactive); in the experiment with T47D, 13.9 µM (inactive); in the experiment on A498 it was 4.19 µM (inactive); in the experiment on Malme-3M, 16.7 µM (inactive); in the experiment with OVCAR-4, 16.1 µM (inactive); with SF-268 it was 5.08 µM (inactive). Moreover, the GI50 is 19.5 µM (inactive) with PC-3 and 15.7 µM (inactive) in the experiment on SK-MEL-28.

For `CCOC(=O)Nc1cc2c(c(N)n1)N=C(c1ccc3ccccc3c1)CN2`, the GI50 in the experiment with NCI-H460 was 0.0918 µM (active); in the experiment with SR it was 0.0329 µM (active); in the experiment with DU-145, 0.101 µM (active); in the experiment with NCI-H226, 0.34 µM (active); in the experiment on LOX IMVI, 0.0559 µM (active); in the experiment on CCRF-CEM, 0.015 µM (active). For the same compound, the GI50 is 2.39 µM (inactive) in the experiment with MDA-MB-231; 0.815 µM (active) in the experiment on UACC-257; 0.0494 µM (active) in the experiment on OVCAR-3; 10.5 µM (inactive) in the experiment on OVCAR-5; 0.499 µM (active) with COLO 205; 0.0189 µM in the experiment on HCT-15. Further, the GI50 with HOP-92 is 0.275 µM (active); in the experiment on T47D, 22.8 µM (inactive); with A498, 0.861 µM (active); in the experiment with Malme-3M, 0.292 µM (active); in the experiment with OVCAR-4, 1.44 µM (inactive); in the experiment with SF-268, 1.92 µM (inactive). Moreover, the GI50 in the experiment on PC-3 was 0.0407 µM (active); with SK-MEL-28, 1.95 µM (inactive).

`Clc1ccc(C(c2ccccc2Cl)C(Cl)Cl)cc1` (stereo not given) [MITOTANE]: the GI50 with NCI-H460 was 17.3 µM (inactive); in the experiment with SR, 18.7 µM (inactive); in the experiment with DU-145, 3.3 µM (inactive); with NCI-H226, 16.5 µM (inactive); with LOX IMVI it was 21.3 µM (inactive); in the experiment with CCRF-CEM it was 17.7 µM (inactive). Besides, the GI50 in the experiment on MDA-MB-231 is 3.39 µM (inactive); in the experiment on UACC-257 it was 19.4 µM (inactive); in the experiment on OVCAR-3, 15.6 µM (inactive); in the experiment on OVCAR-5 it was 18 µM (inactive); in the experiment with COLO 205, 17.3 µM (inactive); with HCT-15 it was 15.8 µM. Moreover, the GI50 was 13 µM (inactive) with HOP-92; 1.64 µM (inactive) in the experiment on T47D; 20.2 µM (inactive) in the experiment with A498; 14.1 µM (inactive) with Malme-3M; 16 µM (inactive) with OVCAR-4; 18.5 µM (inactive) with SF-268. Besides, the GI50 in the experiment with PC-3 was 3.39 µM (inactive); in the experiment with SK-MEL-28, 18.9 µM (inactive).

Turning to `O=C(Cc1nc2ccc([N+](=O)[O-])cc2nc1O)C(=O)Nc1cc(Cl)c(Cl)cc1Cl`, the GI50 was > 100 µM (inactive) in the experiment on NCI-H460; 41.8 µM (inactive) in the experiment on SR; > 100 µM (inactive) in the experiment on DU-145; > 100 µM (inactive) in the experiment on NCI-H226; 69 µM (inactive) in the experiment on LOX IMVI; > 100 µM (inactive) with CCRF-CEM. Also, the GI50 is > 100 µM (inactive) in the experiment on MDA-MB-231; > 100 µM (inactive) with UACC-257; > 100 µM (inactive) in the experiment with OVCAR-3; > 100 µM (inactive) with OVCAR-5; > 100 µM (inactive) with COLO 205; above 100 µM in the experiment on HCT-15. The GI50 in the experiment on HOP-92, in the experiment on T47D, in the experiment on A498, in the experiment with Malme-3M, in the experiment with OVCAR-4 and with SF-268 was > 100 µM (inactive) in each case. Further, the GI50 in the experiment with PC-3 and in the experiment on SK-MEL-28 was > 100 µM (inactive) each time.
